Measurements: US20110152379A1, “COMPOSITION FOR CONTROL OF AGING AND/OR EXTENSION OF LIFE, CONTAINING DAPSONE AS ACTIVE INGREDIENT” (priority 2008, published 2011)
“And” between values parts separate entries of the source, which are not always exact repeats. Equal values may be shown once.

How the values were obtained:
[1] = biological target: T1, Type I pyruvate kinase of rabbit muscle (Oryctolagus cuniculus, UniProt P11974); experiment: Pyruvate kinase activity in vitro (LDH-coupled, 340 nm); format: biochemical; details: DDS added directly along with PK; FIG. 16A
T1 construct: purchased Sigma; host or cells: rabbit muscle
Method: PK activity was analyzed through the decrease degree of absorbance at 340 nm by using the change result from pyruvate and NADH to lactate and NAD by lactate dehydrogenase (LDH). The pyruvate and ATP used for the above process were produced from phosphoenolpyruvate (PEP) and ADP by PK. The analysis in vitro was measured by adding directly DDS along with PK to the above reaction mixture and the analysis in vivo was measured by adding worms that fed on DDS.
Samples were homogenized by rupturing C. elegans with glass bead Precellys 24 homogenizer, twice for 20 seconds, at 5000 rpm in a 100 mM potassium phosphate buffer, pH 7.6, at 37° C. A CHAPS was added to the homogenized sample to be 1% of the final concentration and then centrifuged at 15000 g for 20 minutes. The measurement of pyruvate kinase(PK) activity was performed at 37° C. by adding 300 uL of the reaction mixture contained 100 mM potassium phosphate buffer at pH 7.6 and 37° C., 100 mM MgSO4, 1.3 mM β-NADH, 5000 units/mL of lactate dehydrogenase (LDH), 2 mM adenosine diphosphate (ADP) and 17 mM phosphoenolpyruvate (PEP) into the sample. The change of oxidation degree of NADH was measured at 340 nm of absorbance. PK 1 unit was defined as the change into 1.0 umole of pyruvate per a minute at pH 7.6 and 37° C. […] Type I pyruvate kinase (Sigma) of rabbit muscle was used for in vitro experiment.

SOD1 = experiment: Western blot of SOD1 amount in human diploid fibroblast; format: cell-based; details: various concentrations of DDS, FIG. 25B
Method: Trolox that is well known as a water-soluble vitamin E was used as a positive control.
The isolated sample was transferred to a nitrocellulose and analyzed through Western Blot using MS601 (Total OXPHOS Complexes Detection Kit, MitoSciences, containing antibodies against SDH30 subunit of complex II (5 μg/ml), Core2 subunit of complex III (0.2 μg/ml), COXII subunit of complex IV (2 μg/ml), and subunit α of F1-ATPase of complex V (0.2 μg/ml)), PCKpan-p, PCKα/β-p, PKCδ-p (Phospho-PKC antibody Sampler Kit, Cell Signaling Technology), PKC α, PCKβ, PKCδ (Life Technologies), β-Actin (Sigma), and the like. The measurement was performed by using a horseradish […] secondary antibodies (Zymed) and ECL (Pierce). The results were shown through visualizing by using Autoradiographic film (Image Reader, LAS-3000Fujifilm, Japan).

calcium = experiment: Calcium amount in a cell, Fluo-4; format: cell-based; details: human diploid fibroblast, 1 mM PQ, FIG. 27
Method: HDF cell was cultured at 96-well plate and the calcium in cell was measured by using Fluo-4AM. […] The amount of Calcium in a cell was measured by using Fluo-4 (5 uM) that is a fluorescent material for labeling calcium and is well passed through a cell. The cell was cultured at 37° C. for 30 minutes and then maintained at a room temperature for 30 minutes without light in order for a complete de-esterification of AM ester in a cell: The fluorescent material that was left was removed except a cell by using HBSS containing 20 mM of HEPES (pH 7.4), and 100 ul of HBSS was added into wells containing cells, respectively. The fluorescent signal was measured at 494 nm for the excitation wavelength and 516 nm for the emission wavelength by using the multi-well fluorescence plate Eclipse fluorescence spectrophotometer (Varian, Calif., USA). The result was shown as Relative fluorescence units (RFUs).

C. elegans = experiment: Lifespan of C. elegans fed on E. coli cultured with dapsone; format: in vivo, Caenorhabditis elegans; parameters: Mean lifespan (Mean ± SE): unit not given beside the values
Method: In order to identify the effect of dapsone on the extending of lifespan, the experiment was performed in the following order. At this time, since dapsone is not a water-soluble material, E. coli was cultured in the medium including dapsone and then was used as a feed for C. elegans. […] generation, and the experiment was performed as follows under the condition of 20° C. in order to provide the optimal growth environment: 1) A parent C. elegans of L4 stage was transferred to the medium containing dapsone and PABA, and the progeny of first generation was transferred to the new medium after four days to lay an egg for 4 to 5 hours. […] C. elegans, which […], was excluded from the statistical analysis. […] The significant difference of statistical average lifespan used Log-rank test.

mitochondria = experiment: Mitochondria structure staining with MitoTracker Red; format: cell-based, human; details: pretreated with DDS or DPI, then 1 mM PQ 24 hours; FIG. 30
Method: The first photograph indicates the stained mitochondria of the non-treated human diploid fibroblast as a control, the second photograph indicates the stained mitochondria of the PQ-treated human diploid fibroblast, the third photograph indicates the stained mitochondria of the human diploid fibroblast that was pretreated with DDS and then was treated with PQ, and the final photograph indicates the stained mitochondria of the human diploid fibroblast that was treated with DPI and PQ together (by using Confocal process). The values of (A, B, C and D: ×4000) is means±SEM (n=3), # is p<0.005 relative CC; and * is p<0.005 relative C.
The human diploid fibroblasts were cultured at 24-well plate. After the above experiment materials, i.e., the human diploid fibroblasts, were pretreated and then were treated with PQ for 24 hours, the above cells were treated with MitoTracker Red CMXRos (50 nM), which is a staining material for mitochondria, at 37° C. for 30 minutes. The dye is a marker of function for marking mitochondria through marking a transmembrane potential of mitochondria in a cell. After culturing, the cells were washed with PBS and then fixed with 4% of paraformaldehyde at 4° C. for overnight. […] After washing, the cells were covered with a cover glass and visualized through a fluorescence microscope.

T1 sequence (P11974 whole entry): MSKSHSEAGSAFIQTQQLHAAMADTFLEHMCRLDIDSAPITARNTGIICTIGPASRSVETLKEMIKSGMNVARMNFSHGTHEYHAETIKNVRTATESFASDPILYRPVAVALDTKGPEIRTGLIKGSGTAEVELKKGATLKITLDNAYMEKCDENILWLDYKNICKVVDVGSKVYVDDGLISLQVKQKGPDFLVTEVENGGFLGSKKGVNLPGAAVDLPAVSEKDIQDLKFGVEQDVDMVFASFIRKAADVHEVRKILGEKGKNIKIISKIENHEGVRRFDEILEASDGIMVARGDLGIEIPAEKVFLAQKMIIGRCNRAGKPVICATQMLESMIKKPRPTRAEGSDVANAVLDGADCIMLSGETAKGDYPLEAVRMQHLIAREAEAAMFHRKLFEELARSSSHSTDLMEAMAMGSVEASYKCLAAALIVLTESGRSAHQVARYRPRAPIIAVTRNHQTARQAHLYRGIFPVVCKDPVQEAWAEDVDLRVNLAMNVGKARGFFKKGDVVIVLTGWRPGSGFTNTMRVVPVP

## Nc1ccc(S(=O)(=O)c2ccc(N)cc2)cc1 [DDS, 4,4′-diaminodiphenylsulfone]
[1]
  biochemical activity of PK in vitro: suppresses
SOD1
  amount of SOD1: decreases
calcium
  amount of calcium increased by PQ: decreases
C. elegans; DDS after L4-stage and during the whole life, FIG. 3A, B
  average lifespan and maximum lifespan compared with the control: significantly increased
C. elegans; strain N2, OP50 + PABA + DDS (2 mM) after L4 stage, Figure 1B, four trials
  Mean lifespan (Mean ± SE): 23.04 ± 0.7 and 34.26 ± 0.8 and 23.76 ± 0.6 and 18.87 ± 0.4
C. elegans; strain N2, OP50 + PABA + DDS (2 mM) in the whole life, Figure 1A, two trials
  Mean lifespan (Mean ± SE): 23.07 ± 0.5 and 24.31 ± 0.6
C. elegans; strain N2, OP50 + PABA + DDS, Figure 3F, two trials
  Mean lifespan (Mean ± SE): 23.72 ± 0.7 and 19.74 ± 0.6
C. elegans; strain N2, feeding OP50 + 0.5 mM DDS, Figure S7
  Mean lifespan (Mean ± SE): 22.03 ± 0.6
C. elegans; strain N2, feeding OP50 + 1 mM DDS, Figure S7
  Mean lifespan (Mean ± SE): 22.20 ± 0.6
C. elegans; strain N2, feeding folP + DDS (bacteria lacking folP), Figure S2, three trials
  Mean lifespan (Mean ± SE): 16.90 ± 0.3 and 17.43 ± 0.4 and 17.87 ± 0.4
C. elegans; strain daf-16(cf1038), OP50 + PABA + DDS (2 mM), Figure 2A, two trials
  Mean lifespan (Mean ± SE): 15.69 ± 0.5 and 17.40 ± 0.3
C. elegans; strain pyk-1(ok1754), OP50 + PABA + DDS, Figure 3F, two trials
  Mean lifespan (Mean ± SE): 21.92 ± 0.8 and 23.37 ± 0.6
mitochondria
  shape of mitochondria after PQ (MitoTracker): recovered, partially
